{"source": "PubChem BioAssay AID248", "about": "(DTP/NCI, 2004)", "test_system": "L1210 leukemia ip in BDF1 mice, survival T/C", "assay": "NCI In Vivo Anticancer Drug Screen. Data for tumor model L1210 Leukemia (intraperitoneal) in B6D2F1 (BDF1) mice", "settings": "endpoint: mean survival time, higher = longer survival", "method_in_brief": "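Each compound was tested against a transplantable tumor grown in mice. The endpoint was survival, with treated animals benchmarked against vehicle controls as a simple ratio.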", "key": {"[1]": {"settings": "dose: 100.0 mg/kg/injection, schedule: Q01DX009 (ip), vehicle: Klucel (hydroxypropylcellulose) (HPC)"}, "[2]": {"settings": "dose: 200.0 mg/kg/injection, schedule: Q01DX009 (ip), vehicle: Klucel (hydroxypropylcellulose) (HPC)"}, "[3]": {"settings": "dose: 100.0 mg/kg/injection, schedule: Q01DX001 (ip), vehicle: other"}, "[4]": {"settings": "dose: 200.0 mg/kg/injection, schedule: Q01DX001 (ip), vehicle: other"}, "[5]": {"settings": "dose: 25.0 mg/kg/injection, schedule: Q01DX009 (ip), vehicle: Klucel (hydroxypropylcellulose) (HPC)"}, "[6]": {"settings": "dose: 100.0 mg/kg/injection, schedule: Q04DX003 (ip), vehicle: Klucel (hydroxypropylcellulose) (HPC)"}, "[7]": {"settings": "dose: 200.0 mg/kg/injection, schedule: Q04DX003 (ip), vehicle: Klucel (hydroxypropylcellulose) (HPC)"}, "[8]": {"settings": "dose: 400.0 mg/kg/injection, schedule: Q04DX003 (ip), vehicle: Klucel (hydroxypropylcellulose) (HPC)"}}, "note": "Several values for one entry are separate records, joined by “and”; a condition that tells them apart may be missing. Equal entries are not always repeated. Inconclusive results and toxic doses are left out."}
{"smiles": "CCOC(=O)NNC(=S)NCc1ccccc1", "values": [{"measurement": "T/C", "setting": "[1]", "result": "102 % of control"}, {"measurement": "T/C", "setting": "[2]", "result": "98 % of control"}]}
{"smiles": "CC(C)(C)OC(=O)N1CC=CCN1C(=O)OC(C)(C)C", "values": [{"measurement": "T/C", "setting": "[3]", "result": "98 % of control"}, {"measurement": "T/C", "setting": "[4]", "result": "93 % of control"}, {"measurement": "T/C", "setting": "dose: 400.0 mg/kg/injection, schedule: Q01DX001 (ip), vehicle: other", "result": "102 % of control"}]}
{"smiles": "Cn1c(CCl)nc2c1c(=O)[nH]c(=O)n2C", "values": [{"measurement": "T/C", "setting": "[3]", "result": "95 % of control"}]}
{"smiles": "CC1(C)N=C(N)N=C(N)N1c1ccc(OCc2ccc(C(=O)Nc3cccc(S(=O)(=O)F)c3)cc2)c(Cl)c1", "values": [{"measurement": "T/C", "setting": "[5]", "result": "100 % of control"}, {"measurement": "T/C", "setting": "[6]", "result": "124 % of control"}, {"measurement": "T/C", "setting": "[2]", "result": "86 % of control"}, {"measurement": "T/C", "setting": "[7]", "result": "162 % of control and 168 % of control"}, {"measurement": "T/C", "setting": "[8]", "result": "105 % of control and 106 % of control and 116 % of control"}]}
{"smiles": "O=[N+]([O-])c1cc([N+](=O)[O-])c(Br)cc1Cl", "values": [{"measurement": "T/C", "setting": "dose: 10.0 mg/kg/injection, schedule: Q04DX003 (ip), vehicle: Klucel (hydroxypropylcellulose) (HPC)", "result": "93 % of control"}, {"measurement": "T/C", "setting": "dose: 20.0 mg/kg/injection, schedule: Q04DX003 (ip), vehicle: Klucel (hydroxypropylcellulose) (HPC)", "result": "96 % of control"}]}
{"smiles": "CSC(=S)N(C)C", "values": [{"measurement": "T/C", "setting": "[5]", "result": "90 % of control"}, {"measurement": "T/C", "setting": "dose: 50.0 mg/kg/injection, schedule: Q01DX009 (ip), vehicle: Klucel (hydroxypropylcellulose) (HPC)", "result": "108 % of control"}, {"measurement": "T/C", "setting": "[1]", "result": "97 % of control and 102 % of control"}, {"measurement": "T/C", "setting": "[6]", "result": "100 % of control"}, {"measurement": "T/C", "setting": "[7]", "result": "93 % of control"}]}
{"smiles": "CCCCCCP(=O)(CCCCCC)CCCCCC", "values": [{"measurement": "T/C", "setting": "dose: 44.0 mg/kg/injection, schedule: Q01DX Z (ip), vehicle: methylcellulose (MC)", "result": "89 % of control"}, {"measurement": "T/C", "setting": "dose: 55.0 mg/kg/injection, schedule: Q01DX Z (ip), vehicle: methylcellulose (MC)", "result": "161 % of control"}, {"measurement": "T/C", "setting": "dose: 66.0 mg/kg/injection, schedule: Q01DX Z (ip), vehicle: methylcellulose (MC)", "result": "93 % of control"}, {"measurement": "T/C", "setting": "dose: 83.0 mg/kg/injection, schedule: Q01DX Z (ip), vehicle: methylcellulose (MC)", "result": "172 % of control"}, {"measurement": "T/C", "setting": "dose: 100.0 mg/kg/injection, schedule: Q01DX Z (ip), vehicle: methylcellulose (MC)", "result": "96 % of control"}, {"measurement": "T/C", "setting": "[6]", "result": "97 % of control"}, {"measurement": "T/C", "setting": "[7]", "result": "110 % of control"}, {"measurement": "T/C", "setting": "[8]", "result": "90 % of control"}]}
{"smiles": "Nc1c(Br)cc(Br)cc1C(=O)O", "values": [{"measurement": "T/C", "setting": "[3]", "result": "97 % of control"}, {"measurement": "T/C", "setting": "[4]", "result": "97 % of control"}]}
{"smiles": "Cc1nn(C)c(C#N)c1[N+](=O)[O-]", "values": [{"measurement": "T/C", "setting": "[6]", "result": "98 % of control"}, {"measurement": "T/C", "setting": "[7]", "result": "100 % of control"}]}
{"smiles": "CCOCCOCCOCCCNCCCN1CC1", "values": [{"measurement": "T/C", "setting": "dose: 88.0 mg/kg/injection, schedule: Q01DX009 (ip), vehicle: saline", "result": "117 % of control"}, {"measurement": "T/C", "setting": "dose: 200.0 mg/kg/injection, schedule: Q01DX009 (ip), vehicle: saline", "result": "96 % of control"}, {"measurement": "T/C", "setting": "dose: 300.0 mg/kg/injection, schedule: Q01DX001 (ip), vehicle: saline", "result": "116 % of control"}]}
{"smiles": "CC1NC(=O)NC1=O", "note": "(configuration not stated)", "values": [{"measurement": "T/C", "setting": "[1]", "result": "103 % of control"}, {"measurement": "T/C", "setting": "[6]", "result": "98 % of control"}, {"measurement": "T/C", "setting": "[2]", "result": "95 % of control"}, {"measurement": "T/C", "setting": "[7]", "result": "98 % of control"}, {"measurement": "T/C", "setting": "dose: 400.0 mg/kg/injection, schedule: Q01DX009 (ip), vehicle: Klucel (hydroxypropylcellulose) (HPC)", "result": "100 % of control"}, {"measurement": "T/C", "setting": "[8]", "result": "101 % of control"}]}
{"smiles": "CCOC(=O)CC1CCN(C(=O)c2ccccc2)C(Cc2c[nH]c3ccccc23)C1=O", "note": "(configuration not stated)", "values": [{"measurement": "T/C", "setting": "dose: 100.0 mg/kg/injection, schedule: Q01DX001 (ip), vehicle: saline", "result": "95 % of control"}, {"measurement": "T/C", "setting": "dose: 200.0 mg/kg/injection, schedule: Q01DX001 (ip), vehicle: saline", "result": "94 % of control"}, {"measurement": "T/C", "setting": "dose: 400.0 mg/kg/injection, schedule: Q01DX001 (ip), vehicle: saline", "result": "94 % of control"}]}
{"smiles": "O=C1N/C(=N\\OCc2ccccc2)CC(NOCc2ccccc2)N1C1OC(CO)C(O)C1O", "note": "(configuration not stated)", "values": [{"measurement": "T/C", "setting": "dose: 100.0 mg/kg/injection, schedule: Q04DX003 (ip), vehicle: saline", "result": "92 % of control"}, {"measurement": "T/C", "setting": "dose: 200.0 mg/kg/injection, schedule: Q04DX003 (ip), vehicle: saline", "result": "92 % of control"}]}
{"smiles": "Oc1cccc2ccc(N/N=C/c3ccc4cccnc4c3O)nc12", "values": [{"measurement": "T/C", "setting": "dose: 100.0 mg/kg/injection, schedule: Q01DX001 (ip), vehicle: carboxymethylcellulose (CMC)", "result": "93 % of control"}, {"measurement": "T/C", "setting": "dose: 200.0 mg/kg/injection, schedule: Q01DX001 (ip), vehicle: carboxymethylcellulose (CMC)", "result": "102 % of control"}, {"measurement": "T/C", "setting": "dose: 400.0 mg/kg/injection, schedule: Q01DX001 (ip), vehicle: carboxymethylcellulose (CMC)", "result": "93 % of control"}]}
